Measurements published in patent US7572436B1, “Thionin as an antineoplastic and immunostimulant” (priority 2000, dated 2009).
Values joined by “and” are separate entries in the source; they are usually repeats but may differ in a detail not shown here. Equal values may be shown once. Where no end group is shown, it is not given here.

Tests used:
[1] = system: T cells in the spleen and thymus; experiment: FITC Thy-1.2 staining of T cells after ip injection; assay type: in vivo, Swiss Webster mice
Description: Using sterile technique the spleen or thymus was removed from a mouse euthanized by CO2 gas. The organ was teased apart to collect splenocytes or thymocytes, respectively. The cells were treated with red cell lysing buffer at 37° C. to remove the erthyrocytes, then washed several times in culture medium, RPMI-10. The cells were counted using Trypan Blue exclusion to determine viable cell yield (as described above) and resuspended in PBS/1% BSA/0.1% sodium azide buffer (pH 7.2) at 2×10^7 cells/ml.
To a microfuge tube, in ice, was added 100 μl of cell suspension (2×10^7 cells/ml). Five microliters of FcγR Block (CD16/CD32 Block; Pharmingen, San Diego, Calif.), diluted to 50 μg/ml with PBS/BSA/Azide Buffer, is added. The tube was gently mixed and kept on ice for three minutes.
One hundred microliters of Thy 1.2 FITC stain (10 μg/ml) were added and the tube was gently vortexed. Cells were stained for 30 minutes at 4° C., followed by centrifugation in a microfuge centrifuge at 4500 rpm for three minutes. The cells were washed twice with 500 μl ice-cold PBS/BSA/Azide buffer, and resuspended each time by gentle vortexing.
One hundred microliters of 1% paraformaldehyde (in PBS) were added to the cell pellet, and the cells were thoroughly mixed, then incubated 20 minutes at 4° C. The cells were then washed once with 500 μl of 2.19% glycine and resuspended in 500 μl of sterile PBS.
Fifteen microliters of the stained cell suspension were placed as two non-overlapping spots on a 1-mm thick glass slide that had been cleaned with ethanol. The cell droplets were allowed to dry without spreading or using a cover slip. The slides were air-dried in a hood, covered with aluminum foil to exclude light (in order to prevent photobleaching). If the slide was pre-cleaned and dried correctly, the droplets will naturally dry to a diameter of about 10 mm. The slides should be read within one week.
Cells were evaluated using a Zeiss oil-immersion microscope (UV-lamp, filter #47; Carl Zeiss Inc., Thornwood, N.Y.). Non-stained cells appeared medium-brown in color on a dark background. […] Partially stained cells that have a partial ring were counted separately. The percentage of non-stained, partially stained, and completely stained cells was determined. At least 200 cells per slide were scored, but usually about 300-400 cells were counted.
Data set out in Table 4, and discussed above, indicate that PT stimulates mitogen activity with murine splenocytes in vitro. This could come about through the action of activated macrophages on T cells by IL-1 production and antigen presentation to the T cells. […] T cells were detected with fluorescent-labeled (FITC) Thy 1.2 monoclonal antibody, which is a general antibody for all T cells. The cells were counted manually with a fluorescent microscope, and the data are divided into cells with no stain (no fluorescence), cells with partial staining (medium fluorescence), and cells with intense staining (high fluorescence). The mice were injected with the indicated amount of PT intraperitoneally and the animals sacrificed after three days to obtain the spleen and thymus.

Balb C splenocytes = experiment: Mitogen assay (^3H-thymidine uptake), murine splenocytes; assay type: cell-based; settings: for CPM of tritiated thymidine incorporated: Balb C splenocytes
From the text: (§1) Murine spleen cells or human peripheral blood lymphocytes (PBLS) were obtained aseptically as described herein for use in the mitogen assay. When murine splenocytes were used, they were first treated with red cell lysing buffer (0.17 M Tris, 0.144 NH4C1, pH 7.2), washed in RPMI-10 (standard RPMI growth medium, Sigma Chemical Co., St. Louis, Mo., supplemented with 10% fetal bovine serum) and viable cells counted using Trypan Blue exclusion. Human PBLs were isolated from blood using HISTOPAQUE™-1077, a solution of FICOLL™ and sodium diatrizoate (Sigma Chemical Co., St. Louis, Mo.), and subsequent washings with RPMI-5 (RPMI supplemented with 5% fetal bovine serum) to remove platelets. Isolated lymphocytes were resuspended in RPMI-10 and a viable cell yield determined by Trypan Blue exclusion.
(§2) Drugs and known mitogenic controls were added in triplicate to a 96-well flat bottom microplate aseptically. The culture medium was RPMI-10. Splenocytes or human-lymphocytes were added at a concentration of 3-4×10^5 cells/well, to a final volume of 200 μl/well. The assay plate was incubated at 37° C. in a 5% CO2 humidified incubator. At 48-50 hours, ^3H-thymidine was added (1 μCi/well), and the plate was harvested approximately 16-18 hours later.
(§3) Mitogen assay microplates were harvested using an Inotech plate harvester (Inotech Biosystems International, Inc., Rockville, Md.). Counts per minute (cpm) per well were measured using the Berthold-Inotech Trace 96-plate reader (Inotech AT, Wohlen, Switzerland) and/or a scintillation counter (Packard Tri-carb 2100TR, Packard Instrument Co., Meriden, Conn.). Mitogenic activity was directly determined by comparing cpm levels to controls.
(§4) To test whether PT stimulates mitogen activity, splenocytes were incubated for two days with IL-2 (50 units/ml) or KLH (20 μg/ml) in conjunction with PT in the concentrations shown. Figures represent the radioactivity counts of tritiated thymidine taken up during a subsequent 20-hour incubation period of cells incubated with tritiated thymidine in RPMI.

[2] = Toxic effect of PT on mice in vivo (LD50); set-up: species or system mouse
non-adherent human PBLs = experiment: Mitogen assay (^3H-thymidine uptake), human PBLs; assay type: cell-based; settings: PT 0.01 μg/ml
From the text: as §1, §2, §3, §4

Pyrularia thionin (KSCCRNTWARNCYNVCRLPGTISREICAKKCDCKIISGTTCPSDYPK; ends and bridges not checked; also: labeled with 125I) [PT]
number of T cells in the spleen and thymus ([1]; 10 μg of PT injected intraperitoneally into Swiss Webster mice): increase in the number of T cells in the spleen and thymus | Splenic cells, Medium Fluor. ([1]; Experiment 1, 7 week male mice, 10 μg PT ip, after three days, none: 13): 24 ± 4.2% | Splenic cells, High Fluor. ([1]; Experiment 1, 7 week male mice, 10 μg PT ip, after three days, none: 18): 30 ± 5.0% | Splenic cells, No Fluor. ([1]; Experiment 1, 7 week male mice, 10 μg PT ip, after three days, none: 69): 46 ± 0.4% | Splenic cells, Medium Fluor. ([1]; Experiment 2, 6 month male mice, 10 μg PT ip, after three days, none: 21): 36 ± 2.1% | Splenic cells, High Fluor. ([1]; Experiment 2, 6 month male mice, 10 μg PT ip, after three days, none: 29): 32 ± 1.4% | Splenic cells, No Fluor. ([1]; Experiment 2, 6 month male mice, 10 μg PT ip, after three days, none: 50): 32 ± 1.1% | Splenic cells, Medium Fluor. ([1]; Experiment 3, 4 month females, 5 μg PT ip, after three days, none: 24): 28 ± 2.2% | Thymus cells, High Fluor. ([1]; Experiment 3, 4 month females, 5 μg PT ip, after three days, none: 25): 39 ± 2.9% | Splenic cells, High Fluor. ([1]; Experiment 3, 4 month females, 5 μg PT ip, after three days, none: 26): 31 ± 2.5% | Thymus cells, Medium Fluor. ([1]; Experiment 3, 4 month females, 5 μg PT ip, after three days, none: 27): 29 ± 1.5% | Thymus cells, No. Fluor. ([1]; Experiment 3, 4 month females, 5 μg PT ip, after three days, none: 48): 32 ± 4.4% | Splenic cells, No Fluor. ([1]; Experiment 3, 4 month females, 5 μg PT ip, after three days, none: 50): 41 ± 3.5% | CPM of tritiated thymidine incorporated (Balb C splenocytes; 0.003 μg/ml, RPMI + IL-2 50 units/ml): 2,656 ± 110 CPM | CPM of tritiated thymidine incorporated (Balb C splenocytes; 0.003 μg/ml, RPMI + KLH 20 μg/ml): 3,957 ± 134 CPM | CPM of tritiated thymidine incorporated (Balb C splenocytes; 0.003 μg/ml, RPMI): 230 ± 6 CPM | Cpm, standard mitogen assay (Balb C splenocytes; 0.01 μg/ml PT, GM-CSF (5 ng/ml)): 1,767 Cpm | Cpm, standard mitogen assay (Balb C splenocytes; 0.01 μg/ml PT, GM-CSF (20 ng/ml)): 1,254 Cpm | Cpm, standard mitogen assay (Balb C splenocytes; 0.01 μg/ml PT, no GM-CSF, BALB C spleen cells): 287 Cpm | CPM of tritiated thymidine incorporated (Balb C splenocytes; 0.01 μg/ml, KLH 20 μg/ml): 3,737 ± 134 CPM | CPM of tritiated thymidine incorporated (Balb C splenocytes; 0.03 μg/ml, RPMI + IL-2 50 units/ml): 3,017 ± 107 CPM | CPM of tritiated thymidine incorporated (Balb C splenocytes; 0.03 μg/ml, RPMI + KLH 20 μg/ml): 4,162 ± 200 CPM | CPM of tritiated thymidine incorporated (Balb C splenocytes; 0.03 μg/ml, RPMI): 269 ± 57 CPM | Cpm, standard mitogen assay (Balb C splenocytes; 0.1 μg/ml PT, GM-CSF (20 ng/ml)): 1,549 Cpm | CPM of tritiated thymidine incorporated (Balb C splenocytes; 0.1 μg/ml, RPMI + IL-2 50 units/ml): 2,910 ± 351 CPM | CPM of tritiated thymidine incorporated (Balb C splenocytes; 0.1 μg/ml, RPMI + KLH 20 μg/ml): 4,254 ± 140 CPM and 4,284 ± 140 CPM | CPM of tritiated thymidine incorporated (Balb C splenocytes; 0.1 μg/ml, RPMI): 268 ± 74 CPM | CPM of tritiated thymidine incorporated (Balb C splenocytes; 0.3 μg/ml, RPMI + IL-2 50 units/ml): 2,395 ± 103 CPM | CPM of tritiated thymidine incorporated (Balb C splenocytes; 0.3 μg/ml, RPMI + KLH 20 μg/ml): 3,985 ± 101 CPM and 3,980 ± 101 CPM | CPM of tritiated thymidine incorporated (Balb C splenocytes; 0.3 μg/ml, RPMI): 142 ± 10 CPM and 147 ± 10 CPM | CPM of tritiated thymidine incorporated (Balb C splenocytes; 1.0 μg/ml, RPMI + IL-2 50 units/ml): 951 ± 122 CPM | CPM of tritiated thymidine incorporated (Balb C splenocytes; 1.0 μg/ml, RPMI + KLH 20 μg/ml): 1,742 ± 154 CPM and 1,747 ± 154 CPM | CPM of tritiated thymidine incorporated (Balb C splenocytes; 1.0 μg/ml, RPMI): 107 ± 25 CPM | LD50 ([2]; for a 20-gram mouse): 30 µg | LD50 relative to the amount with maximal protective (immunostimulatory) effect ([2]; versus 3 μg PT): ten times greater | CPM of tritiated thymidine incorporated (non-adherent human PBLs; RPMI): 724 ± 212 CPM | CPM of tritiated thymidine incorporated (non-adherent human PBLs; RPMI + IL-2 50 units/ml): 2,584 ± 527 CPM
